Assays:
[1] = test system: adult patients diagnosed with T1D who have inadequate glycemic control with insulin therapy; experiment: inTandem 3 phase 3 randomized double-blind placebo-controlled study; assay type: in vivo, human; conditions: for A1C (%) LS Mean Difference (SE) / Body weight (kg) LS Mean Difference (SE) / Fasting plasma glucose (mg/dL) LS Mean Difference (SE) / SBP (mmHg) LS Mean Difference (SE): 400 mg vs placebo; for A1C (%) LS Mean Difference (SE) / Body weight (kg) LS Mean Difference (SE) / Fasting plasma glucose (mg/dL) LS Mean Difference (SE) / SBP (mmHg) LS Mean Difference (SE) / A1C (%) LS Mean change (SE) / Body weight (kg) LS Mean change (SE) / Fasting plasma glucose (mg/dL) LS Mean change (SE) / SBP (mmHg) LS Mean change (SE): InTandem3; for A1C (%) LS Mean change (SE) / Body weight (kg) LS Mean change (SE) / Fasting plasma glucose (mg/dL) LS Mean change (SE) / SBP (mmHg) LS Mean change (SE): 400 mg
[2] = test system: adult patients with Type 1 Diabetes Mellitus who have inadequate glycemic control with insulin therapy; experiment: inTandem 1 and inTandem 2 pooled double-blind placebo-controlled clinical studies, efficacy; assay type: in vivo, human; conditions: for 2-hour postprandial plasma glucose (mg/dL) LS Mean Difference (SE) / A1C (%) LS Mean Difference (SE) / Body weight (kg) LS Mean Difference (SE) / DDS2 (score) LS Mean Difference (SE) / DTSQ (score) LS Mean Difference (SE) / Fasting plasma glucose (mg/dL) LS Mean Difference (SE) / SBP (mmHg) LS Mean Difference (SE) / Time in range (%) LS Mean Difference (SE): 200 mg vs placebo
[3] = Baseline BMI <27 kg/m^2, Week 24
[4] = Baseline BMI ≥27 kg/m^2, Week 24
[5] = Sotagliflozin 400 mg vs placebo, Week 24
[6] = Sotagliflozin 400 mg, Week 16, SBP ≥130 mm Hg at baseline
[7] = Sotagliflozin 400 mg, Week 24, insulin pump users
[8] = Sotagliflozin 400 mg, Week 24, nonpump users
[9] = Baseline BMI <27 kg/m^2, Week 52
[10] = Baseline BMI ≥27 kg/m^2, Week 52
[11] = 200 mg, Baseline BMI <27 kg/m^2, Week 24
[12] = 200 mg, Baseline BMI <27 kg/m^2, Week 52

For CCOc1ccc(Cc2cc([C@@H]3O[C@H](SC)[C@@H](O)[C@H](O)[C@H]3O)ccc2Cl)cc1 [sotagliflozin, (2S,3R,4R,5S,6R)-2-(4-chloro-3-(4-ethoxybenzyl)phenyl)-6-(methylthio)tetrahydro-2H-pyran-3,4,5-triol], the “primary endpoint (A1C <7.0% at Week 24, no severe hypoglycemia, no DKA)” value ([1]; 400 mg versus placebo) was “reached its primary endpoint”, the “A1C (%) LS Mean Difference (SE)” value [1, 3] was −0.37 (0.068) % and the “Body weight (kg) LS Mean Difference (SE)” value [1, 3] was −2.47 (0.213) kg. For the same compound, the “Fasting plasma glucose (mg/dL) LS Mean Difference (SE)” value [1, 3] was −21.7 (5.78) mg/dL, the “SBP (mmHg) LS Mean Difference (SE)” value [1, 3] was −3.4 (0.92) mmHg and the “A1C (%) LS Mean Difference (SE)” value [1, 4] was −0.54 (0.051) %. The “Body weight (kg) LS Mean Difference (SE)” value [1, 4] was −3.41 (0.247) kg, the “Fasting plasma glucose (mg/dL) LS Mean Difference (SE)” value [1, 4] was −24.3 (4.69) mg/dL and the “SBP (mmHg) LS Mean Difference (SE)” value [1, 4] was −3.2 (0.79) mmHg. For the same compound, the “A1C (%) LS Mean change (SE)” value [1, 3] was −0.72 (0.051) %, the “Body weight (kg) LS Mean change (SE)” value [1, 3] was −1.71 (0.157) kg and the “Fasting plasma glucose (mg/dL) LS Mean change (SE)” value [1, 3] was −10.4 (4.30) mg/dL. For the same compound, the “SBP (mmHg) LS Mean change (SE)” value [1, 3] was −1.7 (0.69) mmHg, the “A1C (%) LS Mean change (SE)” value [1, 4] was −0.86 (0.065) % and the “Body weight (kg) LS Mean change (SE)” value [1, 4] was −2.80 (0.277) kg. The “Fasting plasma glucose (mg/dL) LS Mean change (SE)” value [1, 4] was −23.5 (6.34) mg/dL, the “SBP (mmHg) LS Mean change (SE)” value [1, 4] was −3.8 (1.19) mmHg and the “efficacy compared to placebo on A1C and body weight in the overweight and obese subgroup” value ([1]; BMI ≥27 kg/m^2 vs <27 kg/m^2, InTandem 3) was “more favorable effect”. For the same compound, the “Primary endpoint: Patients achieving glycated hemoglobin <7% without DKA and no severe hypoglycemia, All patients, no.” value ([1]; Sotagliflozin 400 mg (n = 699), Week 24) was 200, the “Systolic blood pressure in patients with SBP ≥130 mm Hg at baseline, Week 16 LS mean change, LS mean difference from placebo” value ([1]; Sotagliflozin 400 mg vs placebo, Week 16, SBP ≥130 mm Hg at baseline) was −3.5 ± 1.11 mm Hg and the “Daily bolus insulin dose, Week 24 LS mean change from baseline ± SE, LS mean difference from placebo” value [1, 5] was −2.84 ± 0.61 IU/day. The “Daily bolus insulin dose, Week 24 LS mean percent change from baseline ± SE, LS mean difference from placebo” value [1, 5] was −12.32 ± 2.98%, the “Glycated hemoglobin, Week 24 LS mean change from baseline ± SE, LS mean difference from placebo” value [1, 5] was −0.46 ± 0.04% and the “Primary endpoint, All patients, LS mean difference from placebo (95% CI)” value [1, 5] was 13.4% (8.97 to 17.81). The “Weight, Week 24 LS mean change from baseline ± SE, LS mean difference from placebo” value [1, 5] was -2.98 ± 0.166 kg, the “Primary endpoint, Insulin pump users, LS mean difference from placebo (95% CI)” value ([1]; Sotagliflozin 400 mg vs placebo, Week 24, insulin pump users) was 15.9% (8.58 to 23.38) and the “Primary endpoint, Nonpump users, LS mean difference from placebo (95% CI)” value ([1]; Sotagliflozin 400 mg vs placebo, Week 24, nonpump users) was 11.8% (6.14 to 17.38). For the same compound, the “Systolic blood pressure in patients with SBP ≥130 mm Hg at baseline, Week 16 LS mean change from baseline ± SE” value [1, 6] was −9.2 ± 0.92 mm Hg, the “Systolic blood pressure in patients with SBP ≥130 mm Hg at baseline, Week 16 mean ± SD” value [1, 6] was 131.8 ± 12.02 mm Hg and the “Daily bolus insulin dose, Week 24 LS mean change from baseline ± SE” value ([1]; Sotagliflozin 400 mg, Week 24) was −3.93 ± 0.47 IU/day. The “Daily bolus insulin dose, Week 24 LS mean percent change from baseline ± SE” value ([1]; Sotagliflozin 400 mg, Week 24) was −5.71 ± 2.29%, the “Daily bolus insulin dose, Week 24 mean ± SD” value ([1]; Sotagliflozin 400 mg, Week 24) was 23.90 ± 15.76 IU/day and the “Glycated hemoglobin, Week 24 LS mean change from baseline ± SE” value ([1]; Sotagliflozin 400 mg, Week 24) was −0.79 ± 0.03%. For the same compound, the “Glycated hemoglobin, Week 24 mean ± SD” value ([1]; Sotagliflozin 400 mg, Week 24) was 7.41 ± 0.95%, the “Primary endpoint: Patients achieving glycated hemoglobin <7% without DKA and no severe hypoglycemia, All patients, (%)” value ([1]; Sotagliflozin 400 mg, Week 24) was 28.6% and the “Weight, Week 24 LS mean change from baseline ± SE” value ([1]; Sotagliflozin 400 mg, Week 24) was -2.21 ± 0.12 kg. The “Weight, Week 24 mean ± SD” value ([1]; Sotagliflozin 400 mg, Week 24) was 80.19 ± 17.02 kg, the “Primary endpoint, Insulin pump users, (%)” value [1, 7] was 32.0% and the “Primary endpoint, Insulin pump users, no.” value [1, 7] was 88. For the same compound, the “Primary endpoint, Nonpump users, (%)” value [1, 8] was 26.4%, the “Primary endpoint, Nonpump users, no.” value [1, 8] was 112 and the “2-hour postprandial plasma glucose (mg/dL) LS Mean Difference (SE)” value [2, 3] was −66.0 (20.22) mg/dL. The “A1C (%) LS Mean Difference (SE)” value [2, 3] was −0.32 (0.062) %, the “Body weight (kg) LS Mean Difference (SE)” value [2, 3] was −2.06 (0.240) kg and the “DDS2 (score) LS Mean Difference (SE)” value [2, 3] was −0.4 (0.16) score. The “DTSQ (score) LS Mean Difference (SE)” value [2, 3] was 1.7 (0.42) score, the “Fasting plasma glucose (mg/dL) LS Mean Difference (SE)” value [2, 3] was −15.7 (5.69) mg/dL and the “SBP (mmHg) LS Mean Difference (SE)” value [2, 3] was −3.1 (0.97) mmHg. For the same compound, the “Time in range (%) LS Mean Difference (SE)” value [2, 3] was 1.638 (3.8450) %, the “A1C (%) LS Mean Difference (SE)” value [2, 9] was −0.20 (0.078) % and the “Body weight (kg) LS Mean Difference (SE)” value [2, 9] was −2.26 (0.317) kg. For the same compound, the “SBP (mmHg) LS Mean Difference (SE)” value [2, 9] was −4.1 (1.05) mmHg, the “2-hour postprandial plasma glucose (mg/dL) LS Mean Difference (SE)” value [2, 4] was −19.0 (14.71) mg/dL and the “A1C (%) LS Mean Difference (SE)” value [2, 4] was −0.39 (0.046) %. The “Body weight (kg) LS Mean Difference (SE)” value [2, 4] was −2.27 (0.272) kg, the “DDS2 (score) LS Mean Difference (SE)” value [2, 4] was −0.6 (0.13) score and the “DTSQ (score) LS Mean Difference (SE)” value [2, 4] was 2.6 (0.35) score. For the same compound, the “Fasting plasma glucose (mg/dL) LS Mean Difference (SE)” value [2, 4] was −15.7 (4.57) mg/dL, the “SBP (mmHg) LS Mean Difference (SE)” value [2, 4] was −1.3 (0.87) mmHg and the “Time in range (%) LS Mean Difference (SE)” value [2, 4] was 8.171 (2.9713) %. For the same compound, the “A1C (%) LS Mean Difference (SE)” value [2, 10] was −0.24 (0.056) %, the “Body weight (kg) LS Mean Difference (SE)” value [2, 10] was −3.01 (0.357) kg and the “SBP (mmHg) LS Mean Difference (SE)” value [2, 10] was −2.1 (0.90) mmHg. For the same compound, the “2-hour postprandial plasma glucose (mg/dL) LS Mean change (SE)” value [2, 11] was −49.5 (17.63) mg/dL, the “A1C (%) LS Mean change (SE)” value [2, 11] was −0.38 (0.047) % and the “Body weight (kg) LS Mean change (SE)” value [2, 11] was −1.43 (0.177) kg. For the same compound, the “DDS2 (score) LS Mean change (SE)” value [2, 11] was −0.2 (0.13) score, the “DTSQ (score) LS Mean change (SE)” value [2, 11] was 1.7 (0.33) score and the “Fasting plasma glucose (mg/dL) LS Mean change (SE)” value [2, 11] was −10.8 (4.22) mg/dL. The “SBP (mmHg) LS Mean change (SE)” value [2, 11] was −3.0 (0.74) mmHg, the “Time in range (%) LS Mean change (SE)” value [2, 11] was −0.532 (2.9540) % and the “A1C (%) LS Mean change (SE)” value [2, 12] was −0.19 (0.057) %. The “Body weight (kg) LS Mean change (SE)” value [2, 12] was −1.57 (0.230) kg, the “SBP (mmHg) LS Mean change (SE)” value [2, 12] was −1.4 (0.79) mmHg and the “2-hour postprandial plasma glucose (mg/dL) LS Mean change (SE)” value ([2]; 200 mg, Baseline BMI ≥27 kg/m^2, Week 24) was −36.8 (11.72) mg/dL.

Reference: US20240226125A1, “USE OF SOTAGLIFLOZIN FOR THE TREATMENT OF PATIENTS WITH TYPE 1 DIABETES MELLITUS” (priority 2019, published 2024)
